US9980943B2, “Methods of treating muscular dystrophy” (BOARD OF REGENTS OF THE NEVADA SYSTEM OF HIGHER EDUCATION, …, priority 2013, dated 2018)

How the values were obtained:
Assay type in all cases: cell-based, mouse
[1] = tested on: α7 integrin (LacZ reporter in α7βgal+/− myoblasts); test: Myoblast α7+/LacZ integrin FDG assay (Burkin assay in myoblasts, 96-well); details: 96-well; for Burkin Assay in Myoblasts, signal relative to DMSO: α7+/LacZ myoblasts; for Burkin Assay in Myoblasts, value relative to DMSO: SU9516 analogs, N=3-6
[2] = tested on: α7 integrin (LacZ reporter in α7+/LacZ myotubes); test: Myotube α7 integrin FDG assay (Burkin assay in myotubes, 96-well); details: for Burkin Assay in Myotubes, value relative to DMSO: SU9516 analogs, 96-well, N=3-6
[3] = tested on: β-galactosidase in CMV-LacZ C2C12 myoblasts; test: CMV-LacZ secondary screen in C2C12 myoblasts (β-Gal stabilizing assay); details: for CMV-LACZ in Myoblasts (β-galactosidase activity relative to DMSO): CMV-LacZ C2C12 myoblasts; for CMV-LACZ in Myoblasts, value relative to DMSO: SU9516 analogs, C2C12 CMV-LacZ, N=2
Summary of the method: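 A secondary screen identifies compounds that stabilize β-gal independently of the native promoter, using CMV-LacZ C2C12 cells. Curves span 0.5–40 μM at six levels, in duplicate.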

[4] = tested on: β-galactosidase in CMV-LacZ C2C12 myotubes; test: CMV-LacZ secondary screen in C2C12 myotubes (β-Gal stabilizing assay); details: for CMV-LACZ in Myotubes, signal relative to DMSO: C2C12 CMV-LacZ myotubes, fold relative to DMSO; for CMV-LACZ in Myotubes, value relative to DMSO: SU9516 analogs, C2C12 CMV-LacZ, N=2
Summary of the method: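 β-Gal level was the read-out, measured in a clonal C2C12 line expressing LacZ from a CMV promoter. Dose-response curves used six concentrations, 0.5 μM up to 40 μM, with duplicate points.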

## COc1ccc(OC)c(S(=O)(=O)Nc2c(NC3CCCCC3)c3ccccc3oc2=O)c1 [MLS001095705-01]
[1]; 0.5 uM
  Burkin Assay in Myoblasts, signal relative to DMSO: 0.7873
[1]; 1 uM
  Burkin Assay in Myoblasts, signal relative to DMSO: 0.8788
[1]; 5 uM
  Burkin Assay in Myoblasts, signal relative to DMSO: 1.295
[1]; 10 uM
  Burkin Assay in Myoblasts, signal relative to DMSO: 0.969
[1]; 20 uM
  Burkin Assay in Myoblasts, signal relative to DMSO: 0.7917
[1]; 40 uM
  Burkin Assay in Myoblasts, signal relative to DMSO: 0.7284
[2]; 0.5 uM
  Burkin Assay in Myotubes, α7 integrin LacZ reporter signal relative to DMSO: 0.9916
[2]; 1 uM
  Burkin Assay in Myotubes, α7 integrin LacZ reporter signal relative to DMSO: 0.9463
[2]; 5 uM
  Burkin Assay in Myotubes, α7 integrin LacZ reporter signal relative to DMSO: 1.073
[2]; 10 uM
  Burkin Assay in Myotubes, α7 integrin LacZ reporter signal relative to DMSO: 0.8798
[2]; 20 uM
  Burkin Assay in Myotubes, α7 integrin LacZ reporter signal relative to DMSO: 0.9411
[2]; 40 uM
  Burkin Assay in Myotubes, α7 integrin LacZ reporter signal relative to DMSO: 0.7937
[3]; 0.5 uM
  CMV-LACZ in Myoblasts (β-galactosidase activity relative to DMSO): 1.2060
[3]; 1 uM
  CMV-LACZ in Myoblasts (β-galactosidase activity relative to DMSO): 1.2293
[3]; 5 uM
  CMV-LACZ in Myoblasts (β-galactosidase activity relative to DMSO): 0.6476
[3]; 10 uM
  CMV-LACZ in Myoblasts (β-galactosidase activity relative to DMSO): 0.7229
[3]; 20 uM
  CMV-LACZ in Myoblasts (β-galactosidase activity relative to DMSO): 1.1400
[3]; 40 uM
  CMV-LACZ in Myoblasts (β-galactosidase activity relative to DMSO): 1.1723
[4]; 0.5 uM
  CMV-LACZ in Myotubes, signal relative to DMSO: 0.9486
[4]; 1 uM
  CMV-LACZ in Myotubes, signal relative to DMSO: 0.9933
[4]; 5 uM
  CMV-LACZ in Myotubes, signal relative to DMSO: 1.1898
[4]; 10 uM
  CMV-LACZ in Myotubes, signal relative to DMSO: 1.3164
[4]; 20 uM
  CMV-LACZ in Myotubes, signal relative to DMSO: 1.2020
[4]; 40 uM
  CMV-LACZ in Myotubes, signal relative to DMSO: 1.0800

## COc1ccc(C(=O)/C=C2/C(=O)Nc3ccccc32)cc1 [MLS001163848-01]
[1]; 0.5 uM
  Burkin Assay in Myoblasts, value relative to DMSO: 1.002
[1]; 1 uM
  Burkin Assay in Myoblasts, value relative to DMSO: 0.8906
[1]; 5 uM
  Burkin Assay in Myoblasts, value relative to DMSO: 0.4854
[1]; 10 uM
  Burkin Assay in Myoblasts, value relative to DMSO: 0.3141
[1]; 20 uM
  Burkin Assay in Myoblasts, value relative to DMSO: 0.297
[1]; 40 uM
  Burkin Assay in Myoblasts, value relative to DMSO: 0.1444
[2]; 0.5 uM
  Burkin Assay in Myotubes, value relative to DMSO: 1.0964
[2]; 1 uM
  Burkin Assay in Myotubes, value relative to DMSO: 1.045
[2]; 5 uM
  Burkin Assay in Myotubes, value relative to DMSO: 0.9587
[2]; 10 uM
  Burkin Assay in Myotubes, value relative to DMSO: 0.7469
[2]; 20 uM
  Burkin Assay in Myotubes, value relative to DMSO: 0.6878
[2]; 40 uM
  Burkin Assay in Myotubes, value relative to DMSO: 0.4876
[3]; 0.5 uM
  CMV-LACZ in Myoblasts, value relative to DMSO: 1.1146
[3]; 1 uM
  CMV-LACZ in Myoblasts, value relative to DMSO: 0.9620
[3]; 5 uM
  CMV-LACZ in Myoblasts, value relative to DMSO: 0.9336
[3]; 10 uM
  CMV-LACZ in Myoblasts, value relative to DMSO: 1.0762
[3]; 20 uM
  CMV-LACZ in Myoblasts, value relative to DMSO: 2.1030
[3]; 40 uM
  CMV-LACZ in Myoblasts, value relative to DMSO: 2.2215
[4]; 0.5 uM
  CMV-LACZ in Myotubes, value relative to DMSO: 1.2133
[4]; 1 uM
  CMV-LACZ in Myotubes, value relative to DMSO: 0.9638
[4]; 5 uM
  CMV-LACZ in Myotubes, value relative to DMSO: 1.1937
[4]; 10 uM
  CMV-LACZ in Myotubes, value relative to DMSO: 4.2586
[4]; 20 uM
  CMV-LACZ in Myotubes, value relative to DMSO: 6.7729
[4]; 40 uM
  CMV-LACZ in Myotubes, value relative to DMSO: 6.8624

## N/C(=N\OC(=O)c1cccc(C(F)(F)F)c1)c1cnccn1 [MLS001098105-01]
[1]; 0.5 uM
  Burkin Assay in Myoblasts, signal relative to DMSO: 0.9449
[1]; 1 uM
  Burkin Assay in Myoblasts, signal relative to DMSO: 1.029
[1]; 5 uM
  Burkin Assay in Myoblasts, signal relative to DMSO: 0.9936
[1]; 10 uM
  Burkin Assay in Myoblasts, signal relative to DMSO: 0.974
[1]; 20 uM
  Burkin Assay in Myoblasts, signal relative to DMSO: 1.075
[1]; 40 uM
  Burkin Assay in Myoblasts, signal relative to DMSO: 1.135
[2]; 0.5 uM
  Burkin Assay in Myotubes, α7 integrin LacZ reporter signal relative to DMSO: 1.052
[2]; 1 uM
  Burkin Assay in Myotubes, α7 integrin LacZ reporter signal relative to DMSO: 1.053
[2]; 5 uM
  Burkin Assay in Myotubes, α7 integrin LacZ reporter signal relative to DMSO: 0.916
[2]; 10 uM
  Burkin Assay in Myotubes, α7 integrin LacZ reporter signal relative to DMSO: 0.8354
[2]; 20 uM
  Burkin Assay in Myotubes, α7 integrin LacZ reporter signal relative to DMSO: 0.8142
[2]; 40 uM
  Burkin Assay in Myotubes, α7 integrin LacZ reporter signal relative to DMSO: 0.8459
[3]; 0.5 uM
  CMV-LACZ in Myoblasts (β-galactosidase activity relative to DMSO): 1.4689
[3]; 1 uM
  CMV-LACZ in Myoblasts (β-galactosidase activity relative to DMSO): 0.8054
[3]; 5 uM
  CMV-LACZ in Myoblasts (β-galactosidase activity relative to DMSO): 0.9282
[3]; 10 uM
  CMV-LACZ in Myoblasts (β-galactosidase activity relative to DMSO): 0.9421
[3]; 20 uM
  CMV-LACZ in Myoblasts (β-galactosidase activity relative to DMSO): 1.0381
[3]; 40 uM
  CMV-LACZ in Myoblasts (β-galactosidase activity relative to DMSO): 0.8704
[4]; 0.5 uM
  CMV-LACZ in Myotubes, signal relative to DMSO: 0.9248
[4]; 1 uM
  CMV-LACZ in Myotubes, signal relative to DMSO: 1.2543
[4]; 5 uM
  CMV-LACZ in Myotubes, signal relative to DMSO: 0.9211
[4]; 10 uM
  CMV-LACZ in Myotubes, signal relative to DMSO: 1.3183
[4]; 20 uM
  CMV-LACZ in Myotubes, signal relative to DMSO: 0.9671
[4]; 40 uM
  CMV-LACZ in Myotubes, signal relative to DMSO: 1.2553
